The results in this text go back to US20250170107A1, “IMIDAZOPYRIDINE INHIBITORS OF TYROSINE KINASE” (BridGene Biosciences. Inc., priority 2022, published 2025).

As a reminder, the IC50 is the point on the concentration scale where inhibition reaches its midpoint. What is called GI50 is the concentration giving 50% growth inhibition. Low values mean more potent growth inhibition, high ones less potent growth inhibition.

For one assay, the target named is T1, FLT3 (Homo sapiens, UniProt P36888).
T1 construct: purchased ThermoFisher PV3182
T1 sequence (P36888 27-993): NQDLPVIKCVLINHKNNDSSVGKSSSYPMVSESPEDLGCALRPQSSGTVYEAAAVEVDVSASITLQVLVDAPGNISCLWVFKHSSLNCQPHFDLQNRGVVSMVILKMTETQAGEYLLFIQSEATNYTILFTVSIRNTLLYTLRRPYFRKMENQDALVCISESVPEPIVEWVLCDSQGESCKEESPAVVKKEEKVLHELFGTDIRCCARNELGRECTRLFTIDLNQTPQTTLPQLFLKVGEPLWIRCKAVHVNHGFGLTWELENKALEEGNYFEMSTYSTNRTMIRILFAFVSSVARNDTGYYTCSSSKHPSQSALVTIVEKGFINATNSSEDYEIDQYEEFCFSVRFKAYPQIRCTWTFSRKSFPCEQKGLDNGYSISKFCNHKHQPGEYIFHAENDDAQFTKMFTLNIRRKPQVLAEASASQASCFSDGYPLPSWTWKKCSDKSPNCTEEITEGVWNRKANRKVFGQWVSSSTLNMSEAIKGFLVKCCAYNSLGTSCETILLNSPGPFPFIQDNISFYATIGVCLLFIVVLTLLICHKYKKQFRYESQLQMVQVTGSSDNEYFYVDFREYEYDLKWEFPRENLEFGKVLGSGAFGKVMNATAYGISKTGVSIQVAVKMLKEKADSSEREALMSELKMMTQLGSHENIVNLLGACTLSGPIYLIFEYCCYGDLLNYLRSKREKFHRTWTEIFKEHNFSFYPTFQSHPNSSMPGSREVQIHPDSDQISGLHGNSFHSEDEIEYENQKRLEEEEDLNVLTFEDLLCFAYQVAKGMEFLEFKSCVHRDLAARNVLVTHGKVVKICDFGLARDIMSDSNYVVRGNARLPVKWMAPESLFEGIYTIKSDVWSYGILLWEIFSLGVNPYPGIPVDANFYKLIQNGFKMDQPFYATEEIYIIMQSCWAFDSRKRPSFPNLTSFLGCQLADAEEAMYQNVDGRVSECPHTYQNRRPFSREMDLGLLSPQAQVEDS
Description: Caliper mobility shift kinase inhibition assay, recombinant FLT3. It is filed as biochemical. To be noted: recombinant FLT-3 0.1 nM, ATP 95 μM, incubation 3 hr, room temperature. The method, then:
Compounds' inhibition of recombinant kinases (FLT3, KIT) was measured using Caliper mobility shift assay, which is based on the difference in capillary electrophoresis mobility of a fluorescent-tagged peptide as a result of a phosphorylation by the kinase under study. Reactions were started by the addition of various concentrations of a compound (originally in DMSO solution) to a kinase solution in assay buffer followed by addition of a mixture of ATP and a fluorescent-tagged peptide substrate in assay buffer. Concentrations of the enzyme, ATP and thepeptide were pre-optimized so that 15% substrate conversion to ensure initial velocity measurements. After incubation for 3 hours at room temperature, the kinase reaction was quenched by the addition of a concentrated EDTA solution before analysis on a LabChip EZ Reader II to yield percentage inhibition by comparing to the DMSO control. Table 2 below summarizes the assay conditions for the characterization of the kinase inhibition properties of the disclosed compounds.

Another assay relates to MV4-11. The assay is described as follows: Cell viability assay (CellTiter-Glo), FLT3 cell-based assay. The conditions noted are these: Homo sapiens, MV4-11 cells, 72 hr at 37° C., 0.1% DMSO. The method, then:
Cell viability assay was performed based on the following brief procedures. Cells were plated at the density of 5K/well with volume of 180 μL in 96-well white plate and clear bottom plates. 20 μL of veh. or compound was added at proper concentration to the well. The final volume is 200 μL, with final conc. of DMSO=0.1%, 11 points, triplicates. The cells were then treated at 37° C. in the TC incubator for 72 hr. Equal volume (200 μL) of CellTiter-Glo reagent (Promega) was added to the well and protect from light at room temperature for 15 min. The chemiluminescence was measured with EnSight (Perkin Elmer). GraphPad Prism non-linear regression, Log[inhibitor] response with four parameters were used to calculate GI50.
A general note: ATP-based viability assays read luminescence as a measure of living cells.

The target in the next assay is T2, KIT (Homo sapiens, UniProt P10721).
T2 construct: purchased BPS 40250
T2 sequence (P10721 26-976): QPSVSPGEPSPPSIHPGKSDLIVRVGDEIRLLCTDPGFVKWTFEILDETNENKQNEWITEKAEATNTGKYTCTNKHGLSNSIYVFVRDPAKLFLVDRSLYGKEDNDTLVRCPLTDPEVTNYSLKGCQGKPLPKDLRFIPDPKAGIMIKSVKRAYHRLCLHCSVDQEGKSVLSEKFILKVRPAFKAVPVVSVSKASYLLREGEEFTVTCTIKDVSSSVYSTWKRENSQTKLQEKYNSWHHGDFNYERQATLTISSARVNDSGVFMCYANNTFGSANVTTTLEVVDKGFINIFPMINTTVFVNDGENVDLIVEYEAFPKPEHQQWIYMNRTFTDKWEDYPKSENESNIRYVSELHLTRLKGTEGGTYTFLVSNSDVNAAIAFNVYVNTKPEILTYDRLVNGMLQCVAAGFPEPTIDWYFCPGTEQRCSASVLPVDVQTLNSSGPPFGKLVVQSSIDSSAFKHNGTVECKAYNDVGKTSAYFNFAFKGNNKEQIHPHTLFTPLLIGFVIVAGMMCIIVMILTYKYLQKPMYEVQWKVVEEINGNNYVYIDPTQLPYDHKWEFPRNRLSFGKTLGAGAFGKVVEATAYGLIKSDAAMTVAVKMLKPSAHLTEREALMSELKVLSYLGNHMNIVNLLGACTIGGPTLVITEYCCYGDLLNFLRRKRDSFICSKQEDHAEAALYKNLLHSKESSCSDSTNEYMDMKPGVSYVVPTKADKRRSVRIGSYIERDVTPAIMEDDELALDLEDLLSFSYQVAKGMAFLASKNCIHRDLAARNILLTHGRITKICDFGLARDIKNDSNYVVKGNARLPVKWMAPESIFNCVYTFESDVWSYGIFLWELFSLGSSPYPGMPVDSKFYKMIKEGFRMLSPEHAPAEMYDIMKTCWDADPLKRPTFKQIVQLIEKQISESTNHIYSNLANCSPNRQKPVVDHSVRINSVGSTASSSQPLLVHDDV
Description: Caliper mobility shift kinase inhibition assay, recombinant KIT. The format is biochemical. To be noted: recombinant KIT 0.9 nM, ATP 400 μM, incubation 17 hr (Table 2).

Consider `C=CC(=O)N1CCOC[C@H]1C(=O)NCCn1cnc2cnc(Nc3ncc(-c4ccncc4)s3)cc21` [Example 1, (3S)-4-prop-2-enoyl-N-[2-[6-[[5-(4-pyridyl)thiazol-2-yl]amino]imidazo[4,5-c]pyridin-1-yl]ethyl]morpholine-3-carboxamide], for which the IC50 at FLT3 was less than 1 nM; at KIT, 1 to 10 nM. For the same molecule, the GI50 in the assay on MV4-11 was in the range of 10 to 100 nM.

On to `C/C=C\C(=O)N1CCC[C@H]1C(=O)NCCn1cnc2cnc(Nc3ncc(-c4ccc(F)cc4)s3)cc21` [Example 2, (2S)-1-[(Z)-but-2-enoyl]-N-[2-[6-[[5-(4-fluorophenyl)thiazol-2-yl]amino]imidazo[4,5-c]pyridin-1-yl]ethyl]pyrrolidine-2-carboxamide], for which the IC50 on FLT3 and on KIT was 1 to 10 nM in each case. In the assay with MV4-11, this molecule had a GI50 of less than 10 nM.

With `CN(C)C/C=C/C(=O)N1CCC[C@H]1C(=O)NCCn1cnc2cnc(Nc3ncc(-c4ccc(F)cc4)s3)cc21` [Example 3, (2S)-1-[(E)-4-(dimethylamino)but-2-enoyl]-N-[2-[6-[[5-(4-fluorophenyl)thiazol-2-yl]amino]imidazo[4,5-c]pyridin-1-yl]ethyl]pyrrolidine-2-carboxamide], the IC50 on FLT3 is less than 1 nM; at KIT, 1 to 10 nM. The GI50 with MV4-11 lay in the range of 10 to 100 nM.

Turning to `C=C(F)C(=O)N1CCC[C@H]1C(=O)NCCn1cnc2cnc(Nc3ncc(-c4ccc(F)cc4)s3)cc21` [Example 4], the IC50 on FLT3 and on KIT was 1 to 10 nM each time. Besides, the GI50 in the assay on MV4-11 was less than 10 nM.

For `C=CC(=O)N1CCC[C@H]1C(=O)NCCn1cnc2cnc(Nc3ncc(-c4ccc(F)cc4)s3)cc21` [Example 5], the IC50 at FLT3 and on KIT was less than 1 nM throughout. Further, in the assay on MV4-11, the GI50 was less than 10 nM.

`C=CC(=O)N1CCOC[C@H]1C(=O)NCCn1cnc2cnc(Nc3ncc(-c4ccc(F)cc4)s3)cc21` [Example 6, (3S)-N-[2-[6-[[5-(4-fluorophenyl)thiazol-2-yl]amino]imidazo[4,5-c]pyridin-1-yl]ethyl]-4-prop-2-enoyl-morpholine-3-carboxamide] came in with a GI50 in the assay on MV4-11 of less than 10 nM.

Turning to `C=CC(=O)N1CC[C@H]1C(=O)NCCn1cnc2cnc(Nc3ncc(-c4ncccc4F)s3)cc21` [Example 7, (2S)-N-[2-[6-[[5-(3-fluoro-2-pyridyl)thiazol-2-yl]amino]imidazo [4,5-c]pyridin-1-yl]ethyl]-1-prop-2-enoyl-azetidine-2-carboxamide], the IC50 on FLT3 and at KIT was less than 1 nM throughout.

With `C=CC(=O)N1CCC[C@H]1C(=O)NCCn1cnc2cnc(Nc3ncc(-c4ccncc4F)s3)cc21` [Example 8, (2S)-N-[2-[6-[[5-(3-fluoro-4-pyridyl)thiazol-2-yl]amino]imidazo[4,5-c]pyridin-1-yl]ethyl]-1-prop-2-enoyl-pyrrolidine-2-carboxamide], the IC50 at FLT3 and on KIT was less than 1 nM throughout. The same molecule showed a GI50 in the assay on MV4-11 of less than 10 nM.

Regarding `C=CC(=O)N1CCC[C@H]1C(=O)NCCn1cnc2cnc(Nc3ncc(-c4ncccc4F)s3)cc21` [Example 9, (2S)-N-[2-[6-[[5-(3-fluoro-2-pyridyl)thiazol-2-yl]amino]imidazo[4,5-c]pyridin-1-yl]ethyl]-1-prop-2-enoyl-pyrrolidine-2-carboxamide], the IC50 on FLT3 and at KIT was less than 1 nM each time. In the assay on MV4-11, the GI50 is less than 10 nM.

As for `C=C(F)C(=O)N1CCC[C@H]1C(=O)NCCn1cnc2cnc(Nc3ncc(-c4ncccc4F)s3)cc21` [Example 10], the IC50 on FLT3 lay within 1 to 10 nM; on KIT it was 10 to 100 nM. In addition, in the assay on MV4-11, the GI50 was less than 10 nM.

As to `C/C=C\C(=O)N1CCC[C@H]1C(=O)NCCn1cnc2cnc(Nc3ncc(-c4ncccc4F)s3)cc21` [Example 11, (2S)-1-[(Z)-but-2-enoyl]-N-[2-[6-[[5-(3-fluoro-2-pyridyl)thiazol-2-yl]amino]imidazo[4,5-c]pyridin-1-yl]ethyl]pyrrolidine-2-carboxamide], the IC50 at FLT3 was in the range of 1 to 10 nM; on KIT it was 100 to 1000 nM. Besides, in the assay with MV4-11, the GI50 lay in the range of 10 to 100 nM.

Regarding `C=CC(=O)N1CCOC[C@H]1C(=O)NCCn1cnc2cnc(Nc3ncc(-c4ncccc4F)s3)cc21` [Example 12, (3S)-N-[2-[6-[[5-(3-fluoro-2-pyridyl)thiazol-2-yl]amino]imidazo[4,5-c]pyridin-1-yl]ethyl]-4-prop-2-enoyl-morpholine-3-carboxamide], the IC50 on FLT3 is less than 1 nM; on KIT, 10 to 100 nM. Moreover, the GI50 in the assay on MV4-11 was less than 10 nM.

Turning to `C=CC(=O)N1C[C@H](O)C[C@H]1C(=O)NCCn1cnc2cnc(Nc3ncc(-c4ccc(F)cc4)s3)cc21` [Example 13, (2S,4R)-N-[2-[6-[[5-(4-fluorophenyl)thiazol-2-yl]amino]imidazo[4,5-c]pyridin-1-yl]ethyl]-4-hydroxy-1-prop-2-enoylpyrrolidine-2-carboxamide], the IC50 on FLT3 and at KIT was less than 1 nM throughout. In the assay with MV4-11, this molecule had a GI50 of 10 to 100 nM.

Turning to `C=C(F)C(=O)N1CCOC[C@H]1C(=O)NCCn1cnc2cnc(Nc3ncc(-c4ncccc4F)s3)cc21` [Example 16, (3S)-4-(2-fluoroprop-2-enoyl)-N-[2-[6-[[5-(3-fluoro-2-pyridyl)thiazol-2-yl]amino]imidazo[4,5-c]pyridin-1-yl]ethyl]morpholine-3-carboxamide], the concentration for half-maximal inhibition (IC50) at FLT3 and on KIT was 1 to 10 nM throughout.

Turning to `CN(C)C/C=C/C(=O)N1CCOC[C@H]1C(=O)NCCn1cnc2cnc(Nc3ncc(-c4ncccc4F)s3)cc21` [Example 17, (3S)-4-[(E)-4-(dimethylamino)but-2-enoyl]-N-[2-[6-[[5-(3-fluoro-2-pyridyl)thiazol-2-yl]amino]imidazo[4,5-c]pyridin-1-yl]ethyl]morpholine-3-carboxamide], the IC50 at FLT3 and at KIT was less than 1 nM in each case.

Consider `C=CC(=O)N1C[C@H](O)C[C@H]1C(=O)NCCn1cnc2cnc(Nc3ncc(-c4ncccc4F)s3)cc21` [Example 18, (2S,4R)-N-[2-[6-[[5-(3-fluoro-2-pyridyl)thiazol-2-yl]amino]imidazo[4,5-c]pyridin-1-yl]ethyl]-4-hydroxy-1-prop-2-enoyl-pyrrolidine-2-carboxamide], for which the IC50 is less than 1 nM at FLT3 and 1 to 10 nM at KIT.

As for `C=C(F)C(=O)N1C[C@H](O)C[C@H]1C(=O)NCCn1cnc2cnc(Nc3ncc(-c4ncccc4F)s3)cc21` [Example 19, (2S,4R)-1-(2-fluoroprop-2-enoyl)-N-[2-[6-[[5-(3-fluoro-2-pyridyl)thiazol-2-yl]amino]imidazo[4,5-c]pyridin-1-yl]ethyl]-4-hydroxy-pyrrolidine-2-carboxamide], the IC50 on FLT3 is 1 to 10 nM; on KIT it was 10 to 100 nM.

As for `CN(C)C/C=C/C(=O)N1C[C@H](O)C[C@H]1C(=O)NCCn1cnc2cnc(Nc3ncc(-c4ncccc4F)s3)cc21` [Example 20, (2S,4R)-1-[(E)-4-(dimethylamino)but-2-enoyl]-N-[2-[6-[[5-(3-fluoro-2-pyridyl)thiazol-2-yl]amino]imidazo[4,5-c]pyridin-1-yl]ethyl]-4-hydroxy-pyrrolidine-2-carboxamide], the IC50 on FLT3 and on KIT was less than 1 nM in each case.
